Experimental findings from patent EP0761222A1, “Use of orotic acid for the preparation of a medicament for amelioration of microcirculation” (WÖRWAG PHARMA GmbH, priority 1995, dated 1997) are described below.

Common to all, as to format: in vivo
The subject of assay [1] is Kaninchen. As to the kind of experiment: Arteriosclerosis model under 2 % cholesterol diet, planimetric-photographic (density slice) and histological evaluation of vessels. To be noted: 112 Tage 2 % cholesterol diet; for Index arteriosklerotischer Gefäßveränderungen (Gefäßverengungen): equimolar amounts, untreated control index 34,36, Fig. 1. From the text: (§1) In einer Versuchsreihe mit einem Arteriosklerose-Modell wurden Kaninchen über 112 Tage einer zweiprozentigen Cholesterindiät ausgesetzt und mit äquimolaren Mengen von` Magnesiumchlorid, Orotsäure und Magnesiumorotat bzw. in der Kontrollgruppe überhaupt nicht weiter behandelt. Zusätzlich zu histologischen Untersuchungen der Koronaarterien sowie der Aorta femoralis und renalis wurde der Zustand der Aorta an jeweils mehreren Stellen auch planimetrisch-photographisch dokumentiert. Mittels einer computergestützten, digitalen Methode der Oberflächenmessung ("density slice"-Methode) erhält man hierbei dreidimensionale Bilder, mit deren Hilfe auch eine Quantifizierung der cholesterininduzierten Lumeneinengungen möglich ist.

Assay [2] concerns Patienten mit Durchblutungsstörungen. Description: Effect of a single oral dose of Magnesiumorotat on flow properties of human blood, blood pressure and transcutaneous oxygen pressure. On the procedure: 10 Patienten mit Durchblutungsstörungen wurden 4 g Magnesiumorotat zusammen mit ca. 150 ml Wasser verabreicht. Die Blutentnahme erfolgte vor und im Abstand von 15, 30, 60, 120 und 180 Minuten nach der Tabletteneinnahme. Direkt vor jeder Blutentnahme wurden Blutdruck, Puls, der transkutane Sauerstoffdruck, der transkutane Kohlendioxiddruck und die Heizleistungsabweichung gemessen. Es wurden folgende Blutparameter untersucht: • Hämatokrit • BSC • Plasmaviskosität • Erythrozytenaggregation • Erythrozytenfiltrabilität.
Es wurde eine Senkung des systemischen Druckes, insbesondere des systolischen Druckes, bis zum Zeitpunkt 60 Minuten nach Tablettenvergabe festgestellt. Die relative Plasmaviskosität erreicht 60 Minuten nach Tabletteneinnahme ihr Minimum mit anschließender Tendenz zur Normalisierung. In ähnlicher Weise verhält sich die Blutviskosität, die 30 Minuten nach Tabletteneinnahme ein Minimum aufweist.
Besonders interessant sind die Veränderungen der transkutanen Sauerstoffdruckwerte, die im Bereich des Vorfußes abgenommen werden. Bei diesen Patienten mit einer chronisch-arteriellen Verschlußkrankheit sind die tcpO2-Werte bekannterweise nicht sonderlich erniedrigt. Die Ergebnisse der pO2-Werte zeigen doch, daß es zu einem Anstieg der pO2-Werte kommt, die zu dem Zeitpunkt 15 und 30 Minuten statistisch gesichert sind. Dieser Anstieg der tcpO2-Werte überrascht und beruht auf den verbesserten Fließeigenschaften des Blutes.

For assay [3], the system named is Kaninchen. As to the kind of experiment: Coronary angiography in the arteriosclerosis model of Beispiel 2. To be noted: cholesterol stress, untreated control developed Mikroangiopathien.
Description: as §1
Zusätzlich zu den planimetrisch-photographischen Untersuchungen wurde bei der Versuchsreihe aus Beispiel 2 auch eine koronarangiographische Untersuchung vorgenommen.

In another assay the test system is Wistar-Ratten. Description: Hypertension animal model (ROG-Modell, LG-Modell), malignant hypertension. From the text:
In den Hypertonie-Tiermodellen nach Rojo-Ortega-Genest (ROG-Modell) und Lörincz-Goracz (LG-Modell) wird bei Wistar-Ratten die Aorta zwischen den beiden Renalarterien unterbunden bzw. die Niere in eine Gummimanschette fest eingepreßt, was einen malignen Hypertonus hervorruft, also eine Hypertonie mit konstanter Erhöhung des arteriellen diastolischen Blutdruckes auf > 120 mmHg.
Das Ergebnis dieser Untersuchung ist in Fig. 2 dargestellt, wobei die dunklen Säulen jeweils den Beginn der ROG-Hypertonie anzeigen, während die hellen Säulen das Ende der ROG-Hypertonie darstellen. Links in Fig. 2 ist die ROG-Hypertonie ohne Behandlung gezeigt, während die beiden rechten Säulen den Verlauf der ROG-Hypertonie unter Zugabe von täglich 300 mg Magnesiumorotat wiedergibt.

The next assay relates to Triathleten. Description: Double-blind, randomised, placebo-controlled triathlon test, parameters of energy metabolism in blood. To be noted: four weeks Magnesiumorotat 17 mmol/Tag. The text has this: In einer doppelblinden, randomisierten und placebokontrollierten Studie wurden 23 Triathleten einem 500 m Schwimm-, 20 km Fahrrad- und 5.000 m Lauftest nach einer vierwöchigen Magnesiumorotat-Supplementierung von 17 mmol/Tag unterworfen. Die Tests wurden ohne Pausen direkt hintereinander absolviert. Vor dem Test, zwischen den Disziplinen und am Ende wurde den Probanden Blut entnommen und auf Parameter des Energiestoffwechsels untersucht.

For `[Cl-].[Cl-].[Mg+2]` [Magnesiumchlorid, reference compound], the “Index arteriosklerotischer Gefäßveränderungen (Gefäßverengungen)” value in the assay on Kaninchen [1] is recorded as 22,63.
As for `O=C(O)c1cc(=O)[nH]c(=O)[nH]1` [Magnesiumorotat], the “systemischer Druck, insbesondere systolischer Druck” value in assay [2] (4 g Magnesiumorotat oral, single dose, 10 patients, until 60 Minuten after tablet intake) is given as “Senkung”. Besides, the Erythrozytenfiltrationswerte result in assay [2] (4 g Magnesiumorotat oral, 15-180 Minuten after intake) is recorded as “zu keinem Zeitpunkt nach der oralen Gabe von Magnesiumorotat zu statistisch signifikanten Veränderungen”. The “transkutane Sauerstoffdruckwerte (tcpO2-Werte), Vorfuß” value in assay [2] (4 g Magnesiumorotat oral, statistically confirmed at 15 and 30 Minuten) was “Anstieg”. For the same compound, the Hämatokritwert entry in assay [2] (4 g Magnesiumorotat oral, tendency to rise again at end of test) is listed as “temporäre Abnahme”. Besides, in assay [2] (4 g Magnesiumorotat oral, time after tablet intake), the “Zeitpunkt des Minimums der Blutviskosität” value amounted to 30 Minuten. Further, in assay [2] (4 g Magnesiumorotat oral, time after tablet intake, then tendency to normalise), the “Zeitpunkt des Minimums der relativen Plasmaviskosität” value is recorded as 60 Minuten. Besides, in assay [2] (acute oral dose of 4 g Magnesiumorotat), the “Mikrozirkulation (Kapillarfluß an dem Nagelbett)” value was “erheblich verbesserten”. Besides, the “Blut- und Plasmaviskosität” value in assay [2] (acute oral dose of 4 g Magnesiumorotat, patients with arterial occlusive disease) is “signifikant vermindert”. Moreover, in the assay with Kaninchen [1], the “Index arteriosklerotischer Gefäßveränderungen (Gefäßverengungen)” value was 7,28. For the same compound, in the assay on Kaninchen [1] (light/electron microscopy, enzyme histochemistry), the “lumeneinengende Proliferation von Schaumzellen in den Koronarien” value is given as “weitaus am geringsten ausgeprägt”. Further, the “Wirkung bei Mikroangiopathien von kleinen und kleinsten Blutgefäßen am Herzen” value with Kaninchen [3] is reported as “präventive und therapeutische Wirkung”. In the assay with Wistar-Ratten (300 mg Magnesiumorotat daily, compared with no treatment), the “periarterielle Zellinfiltrationen und Herzmuskelzellausfälle” value is on record as “weit weniger”. Moreover, the “Blutdruck systolisch, Ende der ROG-Hypertonie” value in the assay with Wistar-Ratten (ROG-Modell, 300 mg Magnesiumorotat daily, untreated control animals 186 mmHg) amounted to 152 mmHg. Further, the “Blutdruck systolisch, Ausgangswert” value with Wistar-Ratten (ROG-Modell, start of ROG-Hypertonie, treated group, control 81 mmHg) is recorded as 79 mmHg. In addition, in the assay on Triathleten (control group 139 ± 101 %, significant), the Insulinkonzentration came to 65 ± 43 % der Anfangswerte. Moreover, the “Anstieg der Glukosekonzentration während des Tests” value in the assay with Triathleten (control group 187 ± 34 %, significantly lower) is recorded as 118 ± 45%.
Regarding `O=C(O)c1cc(=O)[nH]c(=O)[nH]1` [Orotsäure], the “Index arteriosklerotischer Gefäßveränderungen (Gefäßverengungen)” value with Kaninchen [1] is 9,77. Further, in the assay on Kaninchen [3], the “Wirkung bei Mikroangiopathien von kleinen und kleinsten Blutgefäßen am Herzen” value is on record as “präventive und therapeutische Wirkung”.
